In patent US20230085307A1, “PYRIDAZINONE COMPOUND AND HERBICIDE” (NISSAN CHEMICAL CORPORATION, priority 2019, published 2023):

Columns and labels:
[1] = tested on: Chinese sprangletop; experiment: Test Example 3: herbicidal effect by foliage application, Wagner pot (Table 18, symbol D); format: in vivo, chinese sprangletop (Leptochloa chinensis)
Summary of the method: (§1)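 Plants were sown in alluvial soil held under 0.1–0.5 cm standing water and grown 14 days in a greenhouse at 25–30 °C. An emulsifiable formulation, water-diluted to the set dose, was then sprayed onto the foliage, and effects were scored three weeks later using previously defined criteria.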

[2] = tested on: false cleavers; experiment: Test Example 4: herbicidal effect by soil treatment (Table 19, symbol Q); format: in vivo, false cleavers (Galium spurium)
Summary of the method: (§2)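 Herbicidal effect was rated 3 weeks after treatment, using the scoring criteria of an earlier test. The compound, formulated as an emulsion and diluted in water to a set herbicide amount, had been sprayed uniformly on soil over freshly sown seeds. Growth took place in a greenhouse at 25° C. to 30° C.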

[3] = tested on: barnyard grass; experiment: Test Example 5: herbicidal effect by foliage application, plastic box (Table 20, symbol H); format: in vivo, barnyard grass (Echinochloa crus-galli); details: for H: barnyard grass, herbicidal effect grade: foliage application, three weeks after application
Summary of the method: (§3)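 Foliar spray test: emulsion formulation diluted in water to a set application rate, sprayed onto 14-day-old plants raised in diluvial soil at 25° C to 30° C under glass. Both herbicidal effect and crop effect rated visually three weeks later.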

[4] = tested on: velvetleaf; experiment: Test Example 5: herbicidal effect by foliage application, plastic box (Table 20, symbol M); format: in vivo, velvetleaf (Abutilon theophrasti); details: for M: velvetleaf, herbicidal effect grade: foliage application, three weeks after application
Summary of the method: as §3

[5] = tested on: late watergrass; experiment: Test Example 1: herbicidal activity, application before weed generation under submerged conditions (Table 16, symbol A); format: in vivo, late watergrass (Echinochloa oryzicola)
Summary of the method: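 Submerged Wagner pots (alluvial soil, 4 cm water) sown with weed seeds and planted with 2.5-leaf rice seedlings; emulsifiable concentrate diluted in water applied to water surface on sowing day. Held in greenhouse at 25-30 °C; injury scored 0-5 by herbicidal rate after three weeks.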

[6] = tested on: persian speedwell; experiment: Test Example 4: herbicidal effect by soil treatment (Table 19, symbol R); format: in vivo, Persian speedwell (Veronica persica)
Summary of the method: as §2

[7] = tested on: lambsquarters; experiment: Test Example 4: herbicidal effect by soil treatment (Table 19, symbol O); format: in vivo, lambsquarters (Chenopodium album)
Summary of the method: as §2

[8] = tested on: oval-leafed pondweed; experiment: Test Example 2: herbicidal activity, application during weed generation under submerged conditions (Table 17, symbol C); format: in vivo, oval-leafed pondweed (Monochoria vaginalis); details: application during weed generation, submerged conditions
Summary of the method: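 Steps: fill Wagner pots with alluvial soil; add water to give 4 cm depth; sow the species mixed; grow under glass at 25–30° C.; at 1–2 leaves apply water-diluted emulsion formulation to the water surface at a fixed herbicide amount; score after 3 weeks.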

[9] = tested on: rice flat sedge; experiment: Test Example 3: herbicidal effect by foliage application, Wagner pot (Table 18, symbol E); format: in vivo, rice flat sedge (Cyperus iria)
Summary of the method: as §1

[10] = tested on: wild oat; experiment: Test Example 4: herbicidal effect by soil treatment (Table 19, symbol I); format: in vivo, wild oat (Avena fatua)
Summary of the method: as §2

[11] = tested on: chickweed; experiment: Test Example 5: herbicidal effect by foliage application, plastic box (Table 20, symbol P); format: in vivo, common chickweed (Stellaria media); details: for P: chickweed, herbicidal effect grade: foliage application, three weeks after application
Summary of the method: as §3

[12] = tested on: velvetleaf; experiment: Test Example 4: herbicidal effect by soil treatment (Table 19, symbol M); format: in vivo, velvetleaf (Abutilon theophrasti)
Summary of the method: as §2

[13] = tested on: windgrass; experiment: Test Example 5: herbicidal effect by foliage application, plastic box (Table 20, symbol L); format: in vivo, windgrass (Apera spica-venti); details: for L: windgrass, herbicidal effect grade: foliage application, three weeks after application
Summary of the method: as §3

[14] = tested on: Italian ryegrass; experiment: Test Example 5: herbicidal effect by foliage application, plastic box (Table 20, symbol K); format: in vivo, Italian ryegrass (Lolium multiflorum); details: for K: Italian ryegrass, herbicidal effect grade: foliage application, three weeks after application
Summary of the method: as §3

[15] = tested on: green foxtail; experiment: Test Example 4: herbicidal effect by soil treatment (Table 19, symbol G); format: in vivo, green foxtail (Setaria viridis)
Summary of the method: as §2

[16] = tested on: windgrass; experiment: Test Example 4: herbicidal effect by soil treatment (Table 19, symbol L); format: in vivo, windgrass (Apera spica-venti)
Summary of the method: as §2

[17] = tested on: Italian ryegrass; experiment: Test Example 4: herbicidal effect by soil treatment (Table 19, symbol K); format: in vivo, Italian ryegrass (Lolium multiflorum)
Summary of the method: as §2

[18] = amount of applied herbicide 320 g/ha
[19] = 320 g/ha, foliage application after 14-day growth, evaluated three weeks after application
[20] = amount of applied herbicide 310 g/ha

Row | Compound | herbicidal effect on Chinese sprangletop (D) ([1]; 320 g/ha) | Herbicidal effect, A: late watergrass [5, 18] | herbicidal effect rating, C: oval-leafed pondweed ([8]; AAH 320 g/ha) | herbicidal effect on rice flat sedge (E) ([9]; 320 g/ha) | Q: false cleavers, herbicidal effect grade [2, 18] | H: barnyard grass, herbicidal effect grade ([3]; 320 g/ha) | M: velvetleaf, herbicidal effect grade ([4]; 320 g/ha) | R: persian speedwell, herbicidal effect grade [6, 18] | O: lambsquarters, herbicidal effect grade [7, 18] | I: wild oat, herbicidal effect grade [10, 18] | P: chickweed, herbicidal effect grade ([11]; 320 g/ha) | M: velvetleaf, herbicidal effect grade [12, 18] | L: windgrass, herbicidal effect grade ([13]; 320 g/ha) | K: Italian ryegrass, herbicidal effect grade ([14]; 320 g/ha) | G: green foxtail, herbicidal effect grade [15, 18] | L: windgrass, herbicidal effect grade [16, 18] | K: Italian ryegrass, herbicidal effect grade [17, 18] | further results
1 | Cc1nn(C)c(=O)c(-c2c(-c3ccc(Cl)c(F)c3)sc3c(F)cccc23)c1O [4-054] | 0 (Herbicidal rate of 5% or less (almost no effect)) | 3 (Herbicidal rate of 40% or more and less than 70%) | 0 (Herbicidal rate of 5% or less (almost no effect)) | 0 (Herbicidal rate of 5% or less (almost no effect)) |  |  |  |  |  |  |  |  |  |  |  |  |  | Herbicidal effect by soil treatment, Q: false cleavers [2, 18]: 0 (Herbicidal rate of 5% or less (almost no effect)); herbicidal effect on H: barnyard grass (evaluation grade 0-5) [3, 19]: 4 (Herbicidal rate of 70% or more and less than 90%); herbicidal effect on M: velvetleaf (evaluation grade 0-5) [4, 19]: 5 (Herbicidal rate of 90% or more (almost completely withered)); Herbicidal effect by soil treatment, R: persian speedwell [6, 18]: 4 (Herbicidal rate of 70% or more and less than 90%); Herbicidal effect by soil treatment, O: lambsquarters [7, 18]: 1 (Herbicidal rate of 5% or more and less than 20%); Herbicidal effect by soil treatment, I: wild oat [10, 18]: 0 (Herbicidal rate of 5% or less (almost no effect)); herbicidal effect on P: chickweed (evaluation grade 0-5) [11, 19]: 5 (Herbicidal rate of 90% or more (almost completely withered)); Herbicidal effect by soil treatment, M: velvetleaf [12, 18]: 0 (Herbicidal rate of 5% or less (almost no effect)); herbicidal effect on L: windgrass (evaluation grade 0-5) [13, 19]: 0 (Herbicidal rate of 5% or less (almost no effect)); herbicidal effect on K: Italian ryegrass (evaluation grade 0-5) [14, 19]: 1 (Herbicidal rate of 5% or more and less than 20%); Herbicidal effect by soil treatment, G: green foxtail [15, 18]: 0 (Herbicidal rate of 5% or less (almost no effect)); Herbicidal effect by soil treatment, L: windgrass [16, 18]: 0 (Herbicidal rate of 5% or less (almost no effect)); Herbicidal effect by soil treatment, K: Italian ryegrass [17, 18]: 0 (Herbicidal rate of 5% or less (almost no effect))
2 | CCCC(=O)Oc1c(C)nn(C)c(=O)c1-c1c(-c2ccc(F)cc2OCC)sc2cc(C)ccc12 [3-058] | 4 (Herbicidal rate of 70% or more and less than 90%) | 5 (Herbicidal rate of 90% or more (almost completely withered)) | 4 (Herbicidal rate of 70% or more and less than 90%) | 5 (Herbicidal rate of 90% or more (almost completely withered)) | 1 (Herbicidal rate of 5% or more and less than 20%) | 5 (Herbicidal rate of 90% or more (almost completely withered)) | 5 (Herbicidal rate of 90% or more (almost completely withered)) | 4 (Herbicidal rate of 70% or more and less than 90%) | 5 (Herbicidal rate of 90% or more (almost completely withered)) | 0 (Herbicidal rate of 5% or less (almost no effect)) | 5 (Herbicidal rate of 90% or more (almost completely withered)) | 5 (Herbicidal rate of 90% or more (almost completely withered)) | 5 (Herbicidal rate of 90% or more (almost completely withered)) | 5 (Herbicidal rate of 90% or more (almost completely withered)) | 2 (Herbicidal rate of 20% or more and less than 40%) | 5 (Herbicidal rate of 90% or more (almost completely withered)) | 0 (Herbicidal rate of 5% or less (almost no effect)) | 
3 | CCCC(=O)Oc1c(C)nn(C)c(=O)c1-c1c(-c2ccccc2OC)sc2cc(OCC)ccc12 [3-090] |  |  |  |  |  |  |  |  |  |  |  |  |  |  |  |  |  | herbicidal effect on Chinese sprangletop (D) ([1]; 310 g/ha): 5 (Herbicidal rate of 90% or more (almost completely withered)); Q: false cleavers, herbicidal effect grade [2, 20]: 5 (Herbicidal rate of 90% or more (almost completely withered)); H: barnyard grass, herbicidal effect grade ([3]; 310 g/ha): 5 (Herbicidal rate of 90% or more (almost completely withered)); M: velvetleaf, herbicidal effect grade ([4]; 310 g/ha): 5 (Herbicidal rate of 90% or more (almost completely withered)); Herbicidal effect, A: late watergrass [5, 20]: 5 (Herbicidal rate of 90% or more (almost completely withered)); R: persian speedwell, herbicidal effect grade [6, 20]: 5 (Herbicidal rate of 90% or more (almost completely withered)); O: lambsquarters, herbicidal effect grade [7, 20]: 4 (Herbicidal rate of 70% or more and less than 90%); herbicidal effect rating, C: oval-leafed pondweed ([8]; AAH 310 g/ha): 5 (Herbicidal rate of 90% or more (almost completely withered)); herbicidal effect on rice flat sedge (E) ([9]; 310 g/ha): 5 (Herbicidal rate of 90% or more (almost completely withered)); I: wild oat, herbicidal effect grade [10, 20]: 0 (Herbicidal rate of 5% or less (almost no effect)); P: chickweed, herbicidal effect grade ([11]; 310 g/ha): 5 (Herbicidal rate of 90% or more (almost completely withered)); M: velvetleaf, herbicidal effect grade [12, 20]: 3 (Herbicidal rate of 40% or more and less than 70%); L: windgrass, herbicidal effect grade ([13]; 310 g/ha): 5 (Herbicidal rate of 90% or more (almost completely withered)); K: Italian ryegrass, herbicidal effect grade ([14]; 310 g/ha): 5 (Herbicidal rate of 90% or more (almost completely withered)); G: green foxtail, herbicidal effect grade [15, 20]: 3 (Herbicidal rate of 40% or more and less than 70%); L: windgrass, herbicidal effect grade [16, 20]: 0 (Herbicidal rate of 5% or less (almost no effect)); K: Italian ryegrass, herbicidal effect grade [17, 20]: 4 (Herbicidal rate of 70% or more and less than 90%)
4 | CCOc1ccc2c(-c3c(O)c(C)nn(C)c3=O)c(-c3ccc(F)cc3OCC)sc2c1 [3-095] | 5 (Herbicidal rate of 90% or more (almost completely withered)) | 5 (Herbicidal rate of 90% or more (almost completely withered)) | 5 (Herbicidal rate of 90% or more (almost completely withered)) | 5 (Herbicidal rate of 90% or more (almost completely withered)) | 4 (Herbicidal rate of 70% or more and less than 90%) | 5 (Herbicidal rate of 90% or more (almost completely withered)) | 5 (Herbicidal rate of 90% or more (almost completely withered)) | 5 (Herbicidal rate of 90% or more (almost completely withered)) | 5 (Herbicidal rate of 90% or more (almost completely withered)) | 3 (Herbicidal rate of 40% or more and less than 70%) | 5 (Herbicidal rate of 90% or more (almost completely withered)) | 3 (Herbicidal rate of 40% or more and less than 70%) | 5 (Herbicidal rate of 90% or more (almost completely withered)) | 5 (Herbicidal rate of 90% or more (almost completely withered)) | 5 (Herbicidal rate of 90% or more (almost completely withered)) | 4 (Herbicidal rate of 70% or more and less than 90%) | 2 (Herbicidal rate of 20% or more and less than 40%) | 
